# Columns and labels:
# [1] = tested on: Pseudomonas aeruginosa; experiment: chlorine dioxide (ClO2) and TTPC versus Pseudomonas aeruginosa, log reduction; format: cell-based; details: 10^5 ml
# Protocol: A test with chlorine dioxide (ClO2) and TTPC versus Pseudomonas aeruginosa was performed at 10^5 ml with ClO2 of 10 ppm. This alone gave a 1 log reduction in 30 min exposure. TTPC alone at 50 ppm gave a 2 log reduction. The combination of ClO2 and TTPC of 5ppm and 10 ppm gave a 5 log reduction in 30 min.
# [2] = effective kill time based upon log reduction, TTPC versus dual chain quaternary ammonium; format: cell-based; details: TTPC alone
# Protocol: (§1) When TTPC was added to the core glutaraldehyde or OPA as a substitute for dual chain quaternary ammonium the effective kill time was twice as fast (2×) based upon log reduction. Similarly, the TTPC reduced the effective kill time of acid-producing bacteria (APB) by almost 50%. Although the kill speed of TTPC alone was 20% slower than the glut/quat formula of copending U.S. patent application Ser. No. 12/584,648, when incorporated with glutaraldehyde as a substitute for dual chain quaternary ammonium the kill time […] to four times faster, evidencing the synergism of the present combination.
# [3] = tested on: acid-producing bacteria (APB); experiment: effective kill time of acid-producing bacteria; format: cell-based
# Protocol: as §1
# [4] = effectiveness based upon a 5 log reduction in oil frac water; format: cell-based
# Source text: (§2) As such there is actually a slight increase in planktonic microbes which are more susceptible to biocide/TTPC effects. Individual biocides affect the physiology of the cell quite differently. […] This is an example of enhanced […]. The importance of the environmental parameter cannot be underestimated based upon the foregoing results. TTPC has a similar margin of exposure as the quats used for killing of aerobic organisms. […] The minimum inhibitory concentration (MIC) for the TTPC usage is 50-500 ppm. Therefore it is safe regarding corrosiveness, an important facet in instrument sterilization. […] The faster cidal action is due basically to the chemistry difference between amine quats and phosphonium salts. The ammonium quats have longer alkyl chains. Instead of amine the difference is a phosphonium ion but also importantly is the alkyl chain length. It has been determined that there is an optimal length for anti-bacterial effectiveness. It was dependent upon chain length and attachment moieties. […] Usually the longer chain was better but not in these cases. […] TTPC did. There are great differences between Gram + and Gram − bacteria in their cell walls. […] The Gram − wall is complicated. It has in addition to the wall of G+ an outer membrane of lipopolysaccharide and phospholipids that protects the cell.
# [5] = minimum inhibitory concentration (MIC); format: cell-based
# Source text: as §2
# [6] = tested on: sulfur reducing bacteria (SRB); experiment: efficacy on sulfur reducing bacteria; format: cell-based
# Source text: as §2
# [7] = tested on: MRSA, B. subtillis, E coli, pseudomonas aeruginosa, candida; experiment: kill of test microorganisms in allotted time of 30 minutes; format: cell-based
# Source text: as §2
# [8] = cited from earlier work
compound,measurement,setting,value
"CCCCCCCCCCCCCC[P+](CCCC)(CCCC)CCCC.[Cl-] [TTPC, tributyl tetradecyl phosphonium chloride]",log reduction,[1]; TTPC alone at 50 ppm,2 log reduction
same,kill speed slower than the glut/quat formula,[2],20%
same,reduction of effective kill time,[3],~50%
same,effectiveness relative to original glut/quat formula,[4],2 ×
same,minimum inhibitory concentration (MIC),[5],50-500 ppm
same,efficacy on sulfur reducing bacteria (SRB),[6],almost equally effective
same,kill of all the test bacteria in the allotted time,[7],did
"O=CCCCC=O [glutaraldehyde, Glutaraldehyde]",residence time for disinfection,[8]; controlled temperature from 20 C to 25-30 C,45 to 90 min
"O=Cc1ccccc1C=O [OPA, orthophthalaldehyde]",disinfection time,"[8]; high level disinfectant, 20-22 degrees C.",twelve
"[O][Cl+][O-] [ClO2, chlorine dioxide]",log reduction,"[1]; ClO2 of 10 ppm alone, 30 min exposure",1 log reduction

# Reference: patent US20130251822A1, “BIOCIDAL ALDEHYDE COMPOSITION” (priority 2011, published 2013)
